In patent US8106055B2, “Substituted amide compounds” (Gruenenthal GmbH, priority 2007, dated 2012):
Where two headings read alike, the source gives them in different places.

Key:
[1] = molecular target: T1, human bradykinin 1 receptor (B1R) (Homo sapiens, UniProt P46663); assay: Functional investigation on the human bradykinin 1 receptor (B1R), Ca2+ FLIPR assay in CHO K1 hB1R cells; type: cell-based
T1 construct: expressed in transfected cells; host or cells: CHO K1 cells
T1 sequence (P46663 1-353): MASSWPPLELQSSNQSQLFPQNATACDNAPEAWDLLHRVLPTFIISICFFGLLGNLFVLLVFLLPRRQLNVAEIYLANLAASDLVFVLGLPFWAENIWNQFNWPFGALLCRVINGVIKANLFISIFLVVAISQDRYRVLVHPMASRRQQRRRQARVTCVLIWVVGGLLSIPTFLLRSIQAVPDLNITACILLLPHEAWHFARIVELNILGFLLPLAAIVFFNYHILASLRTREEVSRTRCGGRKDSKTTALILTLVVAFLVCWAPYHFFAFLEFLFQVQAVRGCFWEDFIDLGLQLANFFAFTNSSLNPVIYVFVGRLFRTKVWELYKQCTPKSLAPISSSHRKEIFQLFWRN
Outline: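 Stably transfected CHO K1 cells loaded with Fluo-4; FLIPR Ca2+ fluorescence peak (ex 488/em 540 nm). Compound added first (agonism vs Lys-Des-Arg9-bradykinin ≥50 nM human, Des-Arg9-bradykinin 10 μM rat), then after 10-20 min agonist at EC80; antagonism as % inhibition, IC50 from concentration series, n=2-3, N≥2.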

[2] = molecular target: T2, serotonin (5-HT) reuptake (Rattus norvegicus, UniProt P31652); assay: Inhibition of serotonin (5HT) reuptake in synaptosomes from rat brain; type: biochemical; details: test concentration of 10 μM; read-out: 5-HT (inhibition of reuptake of serotonin, % inhibition)
T2 construct: synaptosomes are freshly isolated from areas of the rat brain; from tissue; host or cells: rat brain synaptosomes (P2 fraction)
Outline: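 Freshly isolated rat brain synaptosomes (P2 fraction) used for 5-HT reuptake. Test compound at 10 μM, activity given as % inhibition.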

[3] = CHO-K1, B1R antagonism human, test substance 10 μM, Ca2+ FLIPR, CHO K1 hB1R cells, read-out: B1R Ant. h [10 μM] % Inhibition

T2 sequence (P31652 whole entry): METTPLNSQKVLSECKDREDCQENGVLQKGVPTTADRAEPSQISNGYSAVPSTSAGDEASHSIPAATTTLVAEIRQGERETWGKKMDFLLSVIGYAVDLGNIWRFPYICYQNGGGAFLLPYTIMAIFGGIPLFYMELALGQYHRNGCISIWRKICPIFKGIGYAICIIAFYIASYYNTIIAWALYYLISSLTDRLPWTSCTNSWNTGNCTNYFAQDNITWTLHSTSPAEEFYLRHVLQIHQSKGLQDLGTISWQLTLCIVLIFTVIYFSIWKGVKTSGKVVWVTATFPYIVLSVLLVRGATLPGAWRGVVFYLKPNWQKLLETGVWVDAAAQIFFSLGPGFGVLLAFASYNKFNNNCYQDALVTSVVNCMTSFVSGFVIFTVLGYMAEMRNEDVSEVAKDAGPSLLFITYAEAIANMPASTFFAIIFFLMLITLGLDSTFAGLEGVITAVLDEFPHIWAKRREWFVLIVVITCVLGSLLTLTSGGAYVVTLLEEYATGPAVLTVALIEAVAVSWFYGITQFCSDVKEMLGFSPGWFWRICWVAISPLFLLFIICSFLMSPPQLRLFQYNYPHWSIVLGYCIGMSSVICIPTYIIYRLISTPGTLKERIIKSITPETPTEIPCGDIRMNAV

Cc1cc(C)c(S(=O)(=O)N2CCC(OCC(=O)NC3CCC(C(c4ccccc4)N(C)C)CC3)C2)c(C)c1 (stereo not drawn) [Example 64, N-(4-((dimethylamino)(phenyl)methyl)cyclohexyl)-2-(1-(mesitylsulfonyl)pyrrolidin-3-yloxy)acetamide]
inhibition at 10 µM [1, 3]: 60% | inhibition at 10 µM [2]: 83%

COc1cc(C)c(S(=O)(=O)N2CCC(OCC(=O)NC3CCC(C(c4cccs4)N(C)C)CC3)C2)c(C)c1C (stereo not drawn) [Example 43, N-(4-((dimethylamino)(thiophen-2-yl)methyl)cyclohexyl)-2-(1-(4-methoxy-2,3,6-trimethylphenylsulfonyl)pyrrolidin-3-yloxy)acetamide]
inhibition at 10 µM [1, 3]: 37% | inhibition at 10 µM [2]: 90%

CN(C)C(c1cccs1)C1CCC(CNC(=O)COC2CCN(S(=O)(=O)c3ccc(Cl)cc3)C2)CC1 (stereo not drawn) [Example 54, 2-(1-(4-chlorophenylsulfonyl)pyrrolidin-3-yloxy)-N-((4-((dimethylamino)(thiophen-2-yl)methyl)cyclohexyl)methyl)acetamide]
inhibition at 10 µM [1, 3]: 10% | inhibition at 10 µM [2]: 84%

CN(C)C(c1cccc(F)c1)C1CCC(CCNC(=O)COCCN(C)S(=O)(=O)c2c(Cl)cccc2Cl)CC1 (stereo not drawn) [Example 41, 2-(2-(2,6-dichloro-N-methylphenylsulfonamido)ethoxy)-N-(2-(4-((dimethylamino)(3-fluorophenyl)methyl)cyclohexyl)ethyl)acetamide]
inhibition at 10 µM [1, 3]: 91% | inhibition at 10 µM [2]: 79%

COc1ccc(S(=O)(=O)N2Cc3ccccc3CC2COCC(=O)NC2CCC(C(c3ccccc3)N(C)C)CC2)cc1 (stereo not drawn) [Example 38, N-(4-((dimethylamino)(phenyl)methyl)cyclohexyl)-2-((2-(4-methoxyphenylsulfonyl)-1,2,3,4-tetrahydroisoquinolin-3-yl)methoxy)acetamide]
inhibition at 10 µM [1, 3]: 45% | inhibition at 10 µM [2]: 61%

CN(C)C(c1cccs1)C1CCC(CCNC(=O)COCCN(C)S(=O)(=O)c2ccc(F)cc2)CC1 (stereo not drawn) [Example 85, N-(2-(4-((dimethylamino)(thiophen-2-yl)methyl)cyclohexyl)ethyl)-2-(2-(4-fluoro-N-methylphenylsulfonamido)ethoxy)acetamide]
inhibition at 10 µM [1, 3]: 7% | inhibition at 10 µM [2]: 98%

COc1cc(C)c(S(=O)(=O)N(C)CCOCC(=O)NCC2CCC(C(c3cccs3)N(C)C)CC2)c(C)c1 (stereo not drawn) [Example 69, N-((4-((dimethylamino)(thiophen-2-yl)methyl)cyclohexyl)methyl)-2-(2-(4-methoxy-N,2,6-trimethylphenylsulfonamido)ethoxy)acetamide]
inhibition at 10 µM [1, 3]: 104% | inhibition at 10 µM [2]: 86%

CN(C)C(c1cccs1)C1CCC(CNC(=O)COCCN(C)S(=O)(=O)c2ccc(OC(F)(F)F)cc2)CC1 (stereo not drawn) [Example 93, N-((4-((dimethylamino)(thiophen-2-yl)methyl)cyclohexyl)methyl)-2-(2-(N-methyl-4-(trifluoromethoxy)phenylsulfonamido)ethoxy)acetamide]
inhibition at 10 µM [1, 3]: -2% | inhibition at 10 µM [2]: 93%

COc1ccc(S(=O)(=O)N2CCCCC2CCOCC(=O)NCCC2CCC(C(c3cccs3)N(C)C)CC2)cc1 (stereo not drawn) [Example 46, N-(2-(4-((dimethylamino)(thiophen-2-yl)methyl)cyclohexyl)ethyl)-2-(2-(1-(4-methoxyphenylsulfonyl)piperidin-2-yl)ethoxy)acetamide]
inhibition at 10 µM [1, 3]: 86% | inhibition at 10 µM [2]: 96%

CN(C)C(c1cccc(F)c1)C1CCC(CNC(=O)COCCN(C)S(=O)(=O)c2c(Cl)cccc2Cl)CC1 (stereo not drawn) [Example 72, 2-(2-(2,6-dichloro-N-methylphenylsulfonamido)ethoxy)-N-((4-((dimethylamino)(3-fluorophenyl)methyl)cyclohexyl)methyl)acetamide]
inhibition at 10 µM [1, 3]: 94% | inhibition at 10 µM [2]: 84%

COc1ccc(S(=O)(=O)N2CCCC2COCC(=O)NCCC2CCC(C(c3cccs3)N(C)C)CC2)cc1 (stereo not drawn) [Example 77, N-(2-(4-((dimethylamino)(thiophen-2-yl)methyl)cyclohexyl)ethyl)-2-((1-(4-methoxyphenylsulfonyl)pyrrolidin-2-yl)methoxy)acetamide]
inhibition at 10 µM [1, 3]: 41% | inhibition at 10 µM [2]: 98%

COc1cc(C)c(S(=O)(=O)N2CCC(OCC(=O)NCC3CCC(C(c4cccs4)N(C)C)CC3)C2)c(C)c1 (stereo not drawn) [Example 86, N-((4-((dimethylamino)(thiophen-2-yl)methyl)cyclohexyl)methyl)-2-(1-(4-methoxy-2,6-dimethylphenylsulfonyl)pyrrolidin-3-yloxy)acetamide]
inhibition at 10 µM [1, 3]: 98% | inhibition at 10 µM [2]: 96%

CN(C)C(c1cccs1)C1CCC(CNC(=O)COC2CCN(S(=O)(=O)c3ccccc3)C2)CC1 (stereo not drawn) [Example 36, N-((4-((dimethylamino)(thiophen-2-yl)methyl)cyclohexyl)methyl)-2-(1-(phenylsulfonyl)pyrrolidin-3-yloxy)acetamide]
inhibition at 10 µM [1, 3]: -11% | inhibition at 10 µM [2]: 102%

CN(C)C(c1ccccc1)C1CCC(CNC(=O)COCCN(C)S(=O)(=O)c2cccc(C(F)(F)F)c2)CC1 (stereo not drawn) [Example 91, N-((4-((dimethylamino)(phenyl)methyl)cyclohexyl)methyl)-2-(2-(N-methyl-3-(trifluoromethyl)phenylsulfonamido)ethoxy)acetamide]
inhibition at 10 µM [1, 3]: 42% | inhibition at 10 µM [2]: 93%

COc1cc(C)c(S(=O)(=O)N2CCC(OCC(=O)NCCC3CCC(C(c4cccs4)N(C)C)CC3)C2)c(C)c1C (stereo not drawn) [Example 74, N-(2-(4-((dimethylamino)(thiophen-2-yl)methyl)cyclohexyl)ethyl)-2-(1-(4-methoxy-2,3,6-trimethylphenylsulfonyl)pyrrolidin-3-yloxy)acetamide]
inhibition at 10 µM [1, 3]: 66% | inhibition at 10 µM [2]: 98%

CN(C)C(c1cccs1)C1CCC(CNC(=O)COCCN(C)S(=O)(=O)c2ccc(Cl)cc2)CC1 (stereo not drawn) [Example 55, 2-(2-(4-chloro-N-methylphenylsulfonamido)ethoxy)-N-((4-((dimethylamino)(thiophen-2-yl)methyl)cyclohexyl)methyl)acetamide]
inhibition at 10 µM [1, 3]: 11% | inhibition at 10 µM [2]: 92%

COc1ccc(S(=O)(=O)N2CCCCC2COCC(=O)NCC2CCC(C(c3cccs3)N(C)C)CC2)cc1 (stereo not drawn) [Example 45, N-((4-((dimethylamino)(thiophen-2-yl)methyl)cyclohexyl)methyl)-2-((1-(4-methoxyphenylsulfonyl)piperidin-2-yl)methoxy)acetamide]
inhibition at 10 µM [1, 3]: 70% | inhibition at 10 µM [2]: 91%

Cc1cc(C)c(S(=O)(=O)N2CCC(OCC(=O)NCCC3CCC(C(c4cccs4)N(C)C)CC3)C2)c(C)c1 (stereo not drawn) [Example 71, N-(2-(4-((dimethylamino)(thiophen-2-yl)methyl)cyclohexyl)ethyl)-2-(1-(mesitylsulfonyl)pyrrolidin-3-yloxy)acetamide]
inhibition at 10 µM [1, 3]: 84% | inhibition at 10 µM [2]: 79%

COc1cc(C)c(S(=O)(=O)N2CCC(OCC(=O)NC3CCC(C(c4cccs4)N(C)C)CC3)CC2)c(C)c1C (stereo not drawn) [Example 1, N-(4-((dimethylamino)(thiophen-2-yl)methyl)cyclohexyl)-2-(1-(4-methoxy-2,3,6-trimethylphenylsulfonyl)piperidin-4-yloxy)acetamide]
inhibition at 10 µM [1, 3]: 46% | inhibition at 10 µM [2]: 94%

Cc1ccc(S(=O)(=O)N(C)CCOCC(=O)NCC2CCC(C(c3cccs3)N(C)C)CC2)cc1 (stereo not drawn) [Example 4, N-((4-((dimethylamino)(thiophen-2-yl)methyl)cyclohexyl)methyl)-2-(2-(N,4-dimethylphenylsulfonamido)ethoxy)acetamide]
inhibition at 10 µM [1, 3]: 2% | inhibition at 10 µM [2]: 92%

COc1ccc(S(=O)(=O)N2Cc3ccccc3CC2COCC(=O)NC2CCC(C(c3cccs3)N(C)C)CC2)cc1 (stereo not drawn) [Example 47, N-(4-((dimethylamino)(thiophen-2-yl)methyl)cyclohexyl)-2-((2-(4-methoxyphenylsulfonyl)-1,2,3,4-tetrahydroisoquinolin-3-yl)methoxy)acetamide]
inhibition at 10 µM [1, 3]: 24% | inhibition at 10 µM [2]: 98%

CN(C)C(c1ccccc1)C1CCC(CNC(=O)COC2CCN(S(=O)(=O)c3ccc(Cl)cc3Cl)C2)CC1 (stereo not drawn) [Example 67, 2-(1-(2,4-dichlorophenylsulfonyl)pyrrolidin-3-yloxy)-N-((4-((dimethylamino)(phenyl)methyl)cyclohexyl)methyl)acetamide]
inhibition at 10 µM ([1]; CHO-K1, read-out: B1R Ant. h [10 μM] % Inhibition): 48% | inhibition at 10 µM [2]: 87%

CN(C)C(c1ccccc1)C1CCC(NC(=O)COCCN(C)S(=O)(=O)c2c(Cl)cc(Cl)cc2Cl)CC1 (stereo not drawn) [Example 34, N-(4-((dimethylamino)(phenyl)methyl)cyclohexyl)-2-(2-(2,4,6-trichloro-N-methylphenylsulfonamido)ethoxy)acetamide]
inhibition at 10 µM [1, 3]: 102% | inhibition at 10 µM [2]: 79%

CCN(CCOCC(=O)NC1CCC(C(c2cccs2)N(C)C)CC1)S(=O)(=O)c1c(C)cc(OC)c(C)c1C (stereo not drawn) [Example 59, N-(4-((dimethylamino)(thiophen-2-yl)methyl)cyclohexyl)-2-(2-(N-ethyl-4-methoxy-2,3,6-trimethylphenylsulfonamido)ethoxy)acetamide]
inhibition at 10 µM [1, 3]: 56% | inhibition at 10 µM [2]: 92%
